Values after ≈ are worked out from the molar mass of the structure shown.
Assays:
[1] = system: Staphylococcus aureus (Stamm ATCC 6538); test: Mouse ear test (in vivo), antiseptic effect; design: key to Keimwachstum (grade): +++: totale Verhinderung des Keimwachstums; ++: Keimwachstum deutlich reduziert aber nicht völlig unterdrückt; conditions: mouse ears infected with S. aureus ATCC 6538; germ count vs infected untreated animal after 18 and 24 h
[2] = system: Micrococcus luteus; test: Minimal inhibitory concentration (MHK), microtitre plate, TTC staining; format: cell-based; conditions: 48h, 36°C
[3] = system: Salmonella sp; test: as above; format: cell-based; conditions: 48h, 36°C
Source text: Das Inokulum für die Tests wurde durch Verdünnung der Mikroorganismen in wässriger 0,85% NaCI-Lösung hergestellt, die Verdünnung auf die Stufe 0,5 nach McFarland eingestellt und die Konzentration spektrometrisch bei einer Wellenlänge von 580nm überprüft. Die Zellsuspensionen wurden zur Verwendung in den Tests auf 10^4 UFC/ml verdünnt. Die MHK-Tests erfolgten (Vorschrift nach J. N. P. Eloff, Planta Medica, Vol. 64, 1998, p 711-713) in Mikrotiterplatten mit 96 Vertiefungen. Serienverdünnungen der Konzentrationen lagen im Bereich 1,00 - 0,0015 mg/mL. Als Kontrollsubstanzen dienten Chloramphenicol bzw. Nistatin (Merck) in einer Konzentration von 0,062 - 0,005 mg/ml bzw. 0,0125 - 0,001 mg/ml. Das Inokulum (100 µl) wurde in alle Vertiefungen gegeben und die Platten für 48h bei 36°C inkubiert. Die antimikrobielle Aktivität wurde durch Zugabe von 20 µl einer 0,5% igen wässrigen Lösung von TTC (Tetrazoliumchlorid, Merck) pro Vertiefung detektiert. Die minimale Hemmkonzentration (MHK) wird als die niedrigste Konzentration der Verbindung definiert die das sichtbare Wachstum hemmt (durch TTC-Färbung indiziert).

[4] = system: S. falcium; test: as above; format: cell-based; conditions: 48h, 36°C
[5] = system: Escherichia coli; test: as above; format: cell-based; conditions: 48h, 36°C
[6] = system: Bacillus subitilis; test: as above; format: cell-based; conditions: 48h, 36°C
[7] = system: Rhodococcus equi; test: as above; format: cell-based; conditions: 48h, 36°C
[8] = system: S. epidermides; test: as above; format: cell-based; conditions: 48h, 36°C
[9] = system: S. aureus; test: as above; format: cell-based; conditions: 48h, 36°C
[10] = system: E. faecium; test: as above; format: cell-based; conditions: 48h, 36°C
[11] = system: LNCaP; test: Chemosensitivity test (modified MTT test EZ4U); conditions: Homo sapiens, 96 h, read-out: IC50-Werte
Source text: (§1) Die Verbindungen wurden in Dimethylsulfoxid (DMSO) als konzentrierte Stammlösungen (100-400fach) gelöst und für Proliferationstests in Zellkulturmedium verdünnt.
(§2) Mit Ausnahme von SIM, KAL Ewingsarkom (in Wien etabliert) und LAN Neuroblastom (University of Los Angeles) wurden die Zell-Linien von der American Type Culture Collection (ATCC, Rockville, MD) bezogen und zum Erhalt von konfluenten Monolayerkulturen in RPMI-1640 Bikarbonatmedium (Seromed, Berlin, Deutschland) in einem Zellkulturschrank (5% CO2, 37°C) kultiviert. Mit der Ausnahme der murinen NlH3T3 Fibroblasten sind alle verwendeten Zell-Linien humanen Ursprungs. Die Zellen wurden auf Verunreinigung durch Mycoplasmen untersucht. Das Medium wurde mit 10% hitzeinaktiviertem foetalem Kälberserum (Seromed) and 4 mM Glutamin ergänzt. Die Zellen wurden durch Trypsinierung subkultiviert (0.03% Trypsin enthaltend 0.02% EDTA, dreimal pro Woche). Die Trypsinierung wurde durch Verwendung vom komplettem Zellkulturmedium gestoppt. Die Zellzahl wurde unter Verwendung eines TOA Sysmex Microzellzählers (TOA, Tokyo, Japan) bestimmt.
(§3) 10^4 Zellen/well wurden in Mikrotiterplatten mit 96 Vertiefungen (100 µl Medium) verteilt und die zu testenden Verbindungen wurden in einem weiteren Volumen von 100 µl hinzugegeben. […]

[12] = system: LAN1; test: Chemosensitivity test (modified MTT test EZ4U); conditions: Homo sapiens, LAN1, 96 h, read-out: IC50-Werte
Protocol: as §1
(§4) Die Zellen wurden auf Verunreinigung durch Mycoplasmen untersucht. Das Medium wurde mit 10% hitzeinaktiviertem foetalem Kälberserum (Seromed) and 4 mM Glutamin ergänzt. Die Zellen wurden durch Trypsinierung subkultiviert (0.03% Trypsin enthaltend 0.02% EDTA, dreimal pro Woche). Die Trypsinierung wurde durch Verwendung vom komplettem Zellkulturmedium gestoppt. Die Zellzahl wurde unter Verwendung eines TOA Sysmex Microzellzählers (TOA, Tokyo, Japan) bestimmt.
(§5) 10^4 Zellen/well wurden in Mikrotiterplatten mit 96 Vertiefungen (100 µl Medium) verteilt und die zu testenden Verbindungen wurden in einem weiteren Volumen von 100 µl hinzugegeben. Alle Verbindungen wurden entweder in 3 fixen Konzentrationen eingesetzt (für Tabellen 1-3) oder in 10 Stufen verdünnt unter Verwendung von Zweifachverdünnungsschritten zur Bestimmung der IC50-Werte (dreifache Ansätze, in den meisten Fällen vierfache Ansätze). […]

[13] = system: SW620; test: Chemosensitivity test (modified MTT test EZ4U); conditions: Homo sapiens, SW-620, 96 h, read-out: IC50-Werte
Protocol: as §1, §4
(§6) 10^4 Zellen/well wurden in Mikrotiterplatten mit 96 Vertiefungen (100 µl Medium) verteilt und die zu testenden Verbindungen wurden in einem weiteren Volumen von 100 µl hinzugegeben. Alle Verbindungen wurden entweder in 3 fixen Konzentrationen eingesetzt (für Tabellen 1-3) oder in 10 Stufen verdünnt unter Verwendung von Zweifachverdünnungsschritten zur Bestimmung der IC50-Werte (dreifache Ansätze, in den meisten Fällen vierfache Ansätze). Die Platten wurden, mit der Ausnahme der Tests zur Untersuchung des Zusammenhangs von Applikationsdauer und Zellreaktion, 4 Tage lang unter Zellkulturbedingungen inkubiert und die Zellviabilität wurde unter Verwendung eines modifizierten MTT Tests bestimmt (Formazan-Farbstoffbildung aus Tetrazoliumsalzen wie MTT, XTT, WST-1 und anderen durch das mitochondriale Reduktionsystem Succinattetrazolium Reductase EC 1.3.99.1.; EZ4U nichtradioaktiver Zellproliferations- und Cytotoxizitätstest, Biomedica, Wien, Österreich; Testmanual unter: www.bmgrp.com). Hierbei wurde die mitochondriale Aktivität und dadurch die Zellviabilität/Zellzahl bestimmt. Kurz gesagt wurde das gelieferte Substrat in einer Aktivatorlösung gelöst und 20 µl der Mischung wurden für 2 Stunden pro Vertiefung hinzugegeben (Gesamtvolumen 200 µl). Die optische Dichte wurde bei 450 nm unter Verwendung einer leeren Vertiefung als Referenz in einem Mikroplattenlesegerät (Eurogenetics, Brüssel, Belgien) bestimmt. Für jede Zell-Line wurden Vertiefungen verwendet um das MTT-Signal der Mediumkontrollen ohne Testsubstanzen zu bestimmen. Die Proliferation in den Test-Vertiefungen wurde in Bezug auf diese Kontrollwerte (100%) errechnet. Die Testergebnisse wurden zwischen 0,3 und 1,5 optischer Dichte für langsam bzw. schnellproliferierende Zellen erfasst. Diese Dosis-Wirkungs-Beziehungen wurden verwendet um die IC50 (Konzentration bei der das Wachstum um 50% gehemmt wird) unter Verwendung von PRISM Scientific Software (GraphPad Inc., San Diego, CA) zu berechnen.

[14] = system: SIM; test: Chemosensitivity test (modified MTT test EZ4U); conditions: Homo sapiens, 96 h, read-out: IC50-Werte
Source text: as §1, §2, §3

[15] = system: CaCo-2; test: Chemosensitivity test (modified MTT test EZ4U); conditions: Homo sapiens, Caco-2, 96 h, read-out: IC50-Werte
Protocol: as §1, §4, §6

[16] = system: WI38; test: Chemosensitivity test (modified MTT test EZ4U); conditions: for IC50: Homo sapiens, WI-38, 96 h, read-out: IC50-Werte; for Zellwachstum in % der Mediumkontrolle: 4 days
Protocol: as §1, §4, §6

[17] = system: CRO2B; test: Chemosensitivity test (modified MTT test EZ4U); conditions: Homo sapiens, 96 h, read-out: IC50-Werte
Protocol: as §1, §4, §6

[18] = system: MIAPaCa2; test: Chemosensitivity test (modified MTT test EZ4U); conditions: for IC50: Homo sapiens, MIA PaCa-2, 96 h, read-out: IC50-Werte; for Zellwachstum in % der Mediumkontrolle: 4 days
Protocol: as §1, §4, §6

[19] = system: T47D; test: Cell count determination in a proliferation test; conditions: Homo sapiens, read-out: Inhibition des Zellenwachstums (in %)
Source text: as §1
(§7) Mit Ausnahme von SIM, KAL Ewingsarkom (in Wien etabliert) und LAN Neuroblastom (University of Los Angeles) wurden die Zell-Linien von der American Type Culture Collection (ATCC, Rockville, MD) bezogen und zum Erhalt von konfluenten Monolayerkulturen in RPMI-1640 Bikarbonatmedium (Seromed, Berlin, Deutschland) in einem Zellkulturschrank (5% CO2, 37°C) kultiviert. […] Die Zellen wurden auf Verunreinigung durch Mycoplasmen untersucht. Das Medium wurde mit 10% hitzeinaktiviertem foetalem Kälberserum (Seromed) and 4 mM Glutamin ergänzt. Die Zellen wurden durch Trypsinierung subkultiviert (0.03% Trypsin enthaltend 0.02% EDTA, dreimal pro Woche). Die Trypsinierung wurde durch Verwendung vom komplettem Zellkulturmedium gestoppt. Die Zellzahl wurde unter Verwendung eines TOA Sysmex Microzellzählers (TOA, Tokyo, Japan) bestimmt.
(§8) Die Zellen wurden in Makroplatten mit 6 Vertiefungen (Greiner, Kremsmünster, Österreich) in einer anfänglichen Zelldichte von 200 000 Zellen/Vertiefung in 4 ml Medium unter Zellkulturbedingungen in Anwesenheit oder Abwesenheit der Testverbindungen (doppelte Ansätze) kultiviert. […]

[20] = system: BT20; test: Cell count determination in a proliferation test; conditions: Homo sapiens, BT-20, read-out: Inhibition des Zellenwachstums (in %)
Source text: as §1, §7, §8

[21] = system: U87MG; test: Chemosensitivity test (modified MTT test EZ4U); conditions: Homo sapiens, U-87 MG, 96 h, read-out: IC50-Werte
Source text: as §1, §2, §3

[22] = system: KAL; test: Chemosensitivity test (modified MTT test EZ4U); conditions: Homo sapiens, 96 h, read-out: IC50-Werte
Source text: as §1, §2, §3

[23] = system: T47D; test: Chemosensitivity test (modified MTT test EZ4U); conditions: 4 days
Protocol: as §1, §4, §6

[24] = system: Colo205; test: Cell count determination in a proliferation test; conditions: Homo sapiens, COLO 205, read-out: Inhibition des Zellenwachstums (in %)
Source text: as §1, §7, §8

[25] = system: J82; test: Chemosensitivity test (modified MTT test EZ4U); conditions: Homo sapiens, J82, 96 h, read-out: IC50-Werte
Protocol: as §1, §4, §5

[26] = system: EW-7; test: Chemosensitivity test (modified MTT test EZ4U); conditions: Homo sapiens, 96 h, read-out: IC50-Werte
Source text: as §1, §2, §3

[27] = system: SKOV3; test: Chemosensitivity test (modified MTT test EZ4U); conditions: Homo sapiens, SK-OV-3, 96 h, read-out: IC50-Werte
Protocol: as §1, §4, §5

[28] = system: Colo205; test: Chemosensitivity test (modified MTT test EZ4U); conditions: 4 days
Protocol: as §1, §4, §6

Question: How did the “Keimwachstum (grade)” value [1] turn out when `COc1ccc(C=CC(=O)c2ccccc2O)cc1` [CH-1, 1-(2-Hydroxyphenyl)-3-(4-methoxyphenyl)propenon] was run?
Answer: The value was “++”.

Question: How did the MHK-Werte [2] turn out when `O=C(N[C@H](CO)[C@H](O)c1ccc([N+](=O)[O-])cc1)C(Cl)Cl` [Chloramphenicol, reference compound] was run?
Answer: Its MHK-Werte is 0,05 mg/ml.

Question: And the MHK-Werte [3]?
Answer: The MHK-Werte was 0,06 mg/ml.

Question: And the MHK-Werte [4]?
Answer: The MHK-Werte was 0,12 mg/ml.

Question: And the MHK-Werte [5]?
Answer: The MHK-Werte was 0,04 mg/ml.

Question: And the MHK-Werte [6]?
Answer: Its MHK-Werte is 0,02 mg/ml.

Question: And the MHK-Werte [7]?
Answer: Its MHK-Werte is 0,04 mg/ml.

Question: What about the MHK-Werte [8] of the same compound?
Answer: The MHK-Werte was 0,04 mg/ml.

Question: What about the MHK-Werte [9] of the same compound?
Answer: Its MHK-Werte is 0,02 mg/ml.

Question: And the MHK-Werte [10]?
Answer: Its MHK-Werte is 0,12 mg/ml.

Question: For `O=C(/C=C/c1ccc(CO)o1)c1ccc(Cl)cc1` [HMF-2, 1-(4-Chlorophenyl)-3-(5-hydroxymethylfuran-2-yl)propenon], which IC50 [11] is on record?
Answer: The IC50 was 3.25 µg/mL (≈ 12.4 µM).

Question: What about the IC50 [12] of the same compound?
Answer: The IC50 was 4.25 µg/mL (≈ 16.2 µM).

Question: And the IC50 [13]?
Answer: Its IC50 is 0.85 µg/mL (≈ 3.24 µM).

Question: What about the IC50 [14] of the same compound?
Answer: Its IC50 is > 200 µg/mL.

Question: What about the IC50 [15] of the same compound?
Answer: The IC50 was 17.5 µg/mL (≈ 66.6 µM).

Question: And the IC50 [16]?
Answer: Its IC50 is 4.9 µg/mL (≈ 18.7 µM).

Question: What about the “Zellwachstum in % der Mediumkontrolle” value ([16]; WI38 (Fibroblasten), 5 µg/ml) of the same compound?
Answer: The value was 92,90%.

Question: And the “Zellwachstum in % der Mediumkontrolle” value ([16]; WI38 (Fibroblasten), 10 µg/ml)?
Answer: Its value is 10,60%.

Question: And the “Zellwachstum in % der Mediumkontrolle” value ([16]; WI38 (Fibroblasten), 2,5 µg/ml)?
Answer: The value was 104,7%.

Question: And the IC50 [17]?
Answer: The IC50 was 50 µg/mL (≈ 190 µM).

Question: And the IC50 [18]?
Answer: Its IC50 is 10 µg/mL (≈ 38.1 µM).

Question: What about the “Zellwachstum in % der Mediumkontrolle” value ([18]; MIAPaCa2 (Pankreas), 5 µg/ml) of the same compound?
Answer: Its value is 91,10%.

Question: And the “Zellwachstum in % der Mediumkontrolle” value ([18]; MIAPaCa2 (Pankreas), 10 µg/ml)?
Answer: The value was 74,60%.

Question: And the “Zellwachstum in % der Mediumkontrolle” value ([18]; MIAPaCa2 (Pankreas), 2,5 µg/ml)?
Answer: The value was 84,30%.

Question: And the inhibition at 50 µg/mL [19]?
Answer: Its inhibition at 50 µg/mL is 75.6%.

Question: What about the inhibition at 50 µg/mL [20] of the same compound?
Answer: The inhibition at 50 µg/mL was 74%.

Question: What about the IC50 [21] of the same compound?
Answer: The IC50 was > 200 µg/mL.

Question: And the “Keimwachstum (grade)” value [1]?
Answer: The value was “+++”.

Question: What about the IC50 [22] of the same compound?
Answer: Its IC50 is 45 µg/mL (≈ 171 µM).

Question: What about the “Zellwachstum in % der Mediumkontrolle” value ([23]; T47D (Mamakarzinom), 5 µg/ml) of the same compound?
Answer: Its value is 25,60%.

Question: What about the “Zellwachstum in % der Mediumkontrolle” value ([23]; T47D (Mamakarzinom), 10 µg/ml) of the same compound?
Answer: Its value is 4,90%.

Question: What about the “Zellwachstum in % der Mediumkontrolle” value ([23]; T47D (Mamakarzinom), 2,5 µg/ml) of the same compound?
Answer: The value was 28,10%.

Question: What about the inhibition at 50 µg/mL [24] of the same compound?
Answer: The inhibition at 50 µg/mL was 35.6%.

Question: And the IC50 [25]?
Answer: Its IC50 is 47 µg/mL (≈ 179 µM).

Question: And the IC50 [26]?
Answer: The IC50 was 0.3 µg/mL (≈ 1.14 µM).

Question: What about the IC50 [27] of the same compound?
Answer: Its IC50 is 36 µg/mL (≈ 137 µM).

Question: What about the “Zellwachstum in % der Mediumkontrolle” value ([28]; Colo205 (Colon), 5 µg/ml) of the same compound?
Answer: The value was 78,6%.

Question: What about the “Zellwachstum in % der Mediumkontrolle” value ([28]; Colo205 (Colon), 10 µg/ml) of the same compound?
Answer: The value was 41,30%.

Question: And the “Zellwachstum in % der Mediumkontrolle” value ([28]; Colo205 (Colon), 2,5 µg/ml)?
Answer: The value was 84,80%.

Question: How did the IC50 [11] turn out when `O=C(/C=C/c1ccc(CO)o1)c1ccccc1O` [HMF-3, 3-(5-Hydroxymethylfuran-2-yl)-1-(2-hydroxyphenyl)-propenon] was run?
Answer: Its IC50 is 9.5 µg/mL (≈ 38.9 µM).

Question: What about the IC50 [12] of the same compound?
Answer: The IC50 was 20 µg/mL (≈ 81.9 µM).

Question: What about the IC50 [13] of the same compound?
Answer: The IC50 was 9.7 µg/mL (≈ 39.7 µM).

Question: What about the IC50 [14] of the same compound?
Answer: The IC50 was > 200 µg/mL.

Question: And the IC50 [15]?
Answer: The IC50 was > 200 µg/mL.

Question: What about the IC50 [16] of the same compound?
Answer: Its IC50 is 20 µg/mL (≈ 81.9 µM).

Question: What about the “Zellwachstum in % der Mediumkontrolle” value ([16]; WI38 (Fibroblasten), 5 µg/ml) of the same compound?
Answer: Its value is 64,70%.

Question: What about the “Zellwachstum in % der Mediumkontrolle” value ([16]; WI38 (Fibroblasten), 10 µg/ml) of the same compound?
Answer: Its value is 81,50%.

Question: And the “Zellwachstum in % der Mediumkontrolle” value ([16]; WI38 (Fibroblasten), 2,5 µg/ml)?
Answer: Its value is 92%.

Question: And the IC50 [17]?
Answer: Its IC50 is > 200 µg/mL.

Question: What about the IC50 [18] of the same compound?
Answer: Its IC50 is > 200 µg/mL.

Question: And the “Zellwachstum in % der Mediumkontrolle” value ([18]; MIAPaCa2 (Pankreas), 5 µg/ml)?
Answer: Its value is 81,80%.

Question: What about the “Zellwachstum in % der Mediumkontrolle” value ([18]; MIAPaCa2 (Pankreas), 10 µg/ml) of the same compound?
Answer: The value was 50,60%.

Question: And the “Zellwachstum in % der Mediumkontrolle” value ([18]; MIAPaCa2 (Pankreas), 2,5 µg/ml)?
Answer: The value was 84,10%.

Question: What about the inhibition at 50 µg/mL [19] of the same compound?
Answer: The inhibition at 50 µg/mL was 57%.

Question: What about the inhibition at 50 µg/mL [20] of the same compound?
Answer: The inhibition at 50 µg/mL was 15.7%.

Question: What about the IC50 [21] of the same compound?
Answer: The IC50 was > 200 µg/mL.

Question: And the IC50 [22]?
Answer: The IC50 was > 200 µg/mL.

Question: What about the “Zellwachstum in % der Mediumkontrolle” value ([23]; T47D (Mamakarzinom), 5 µg/ml) of the same compound?
Answer: Its value is 50,00%.

Question: And the “Zellwachstum in % der Mediumkontrolle” value ([23]; T47D (Mamakarzinom), 10 µg/ml)?
Answer: The value was 50,20%.

Question: What about the “Zellwachstum in % der Mediumkontrolle” value ([23]; T47D (Mamakarzinom), 2,5 µg/ml) of the same compound?
Answer: Its value is 39,10%.

Question: And the inhibition at 50 µg/mL [24]?
Answer: Its inhibition at 50 µg/mL is 3.5%.

Question: And the IC50 [25]?
Answer: Its IC50 is > 200 µg/mL.

Question: What about the IC50 [26] of the same compound?
Answer: The IC50 was 5.25 µg/mL (≈ 21.5 µM).

Question: What about the IC50 [27] of the same compound?
Answer: Its IC50 is > 200 µg/mL.

Question: And the “Zellwachstum in % der Mediumkontrolle” value ([28]; Colo205 (Colon), 5 µg/ml)?
Answer: Its value is 68%.

Question: And the “Zellwachstum in % der Mediumkontrolle” value ([28]; Colo205 (Colon), 10 µg/ml)?
Answer: The value was 82,60%.

Question: What about the “Zellwachstum in % der Mediumkontrolle” value ([28]; Colo205 (Colon), 2,5 µg/ml) of the same compound?
Answer: The value was 85,90%.
